Results taken from patent publication US20190125753A1, “COMPOUNDS AND METHODS FOR INCREASING HEMATOPOIESIS” (University of Southern California, priority 2016, published 2019).
Values belong to the compound of their own block, whether it stands above or below them.

Experiments:
Wnt/β-catenin pathway = assay: SuperTOPFLASH (STF1.1 Hek-293) Wnt/β-catenin-driven luciferase reporter; type: cell-based
Experimental: A. Wnt/β-Catenin Activity: The Initial SuperTOPFLASH Screen.
(§1) Hek293 cells were stably transfected with plasmid that contains multiple TCF/LEF fragments in front of Luciferase gene. Wnt/β-catenin activity was determined from luciferase expression levels. […] Briefly, stably transfected Hek-293, STFI.1 (Wnt/β-catenin-driven luciferase) and Survivin-Hek-293 (1 Kb Human survivin promoter-driven luciferase) cells were maintained in DMEM, 10% FBS, Pen/Strep with 400 μg/mL G418 or 2 μg/mL puromycin, respectively. To check the activity of ICG-001, YH249, and YH250, the cells were split into white-opaque 96-well plates at 10,000 cells per well and allowed to attach overnight. For SuperTOPLASH, the inhibitors were added to the cells and pre-incubated for 1 hour prior to stimulation with 10 mM Li Cl for 24 hours. Luciferase activity was read using BrightGlo (Promnega) luciferase substrate. For survivin/luc, the inhibitors were added to the cells and incubated for 24 hours prior to readout. To calculate IC5o values, the resulting curve was fitted to a four-parameter logistic model (4PL) using GraphPad Prism 5 software.
(§2) An endogenous human survivin 1 kb promoter was inserted before a luciferase gene. […] R1 and R2 were diversified in this study. Percent inhibition of luciferase activity was calculated according to the following equations; % inhibition of STF 1.1 reporter activity=(I−RLU(10 mM LiCl) treated/RLU(10 omM LiCl) vehicle×control)100, % inhibition of Survivin reporter activity=(1−RLUtreated/RLU vehicle control)×100. Error bars indicate the mean±SE of 3 separate experiments. Selectivity (FIG. 2H) was calculated by IC50 value for Survivin-Hek-293/IC50 value for STF 1.1.

[1] = target: T1, CBP/γ-catenin interaction (Mus musculus, UniProt P45481); assay: Co-IP of bone marrow Sca-1posit cells from treated mice (anti-CBP); type: in vivo; settings: YH250 2 mg/kg subcutaneously, 24 hrs
T1 construct: bone marrow Sca-1posit cells were isolated with Anti-Sca-1 microbeads; from tissue; host or cells: bone marrow Sca-1 positive cells of female C57/Black mice dosed in vivo
T1 sequence (P45481 2-2441 limits assumed): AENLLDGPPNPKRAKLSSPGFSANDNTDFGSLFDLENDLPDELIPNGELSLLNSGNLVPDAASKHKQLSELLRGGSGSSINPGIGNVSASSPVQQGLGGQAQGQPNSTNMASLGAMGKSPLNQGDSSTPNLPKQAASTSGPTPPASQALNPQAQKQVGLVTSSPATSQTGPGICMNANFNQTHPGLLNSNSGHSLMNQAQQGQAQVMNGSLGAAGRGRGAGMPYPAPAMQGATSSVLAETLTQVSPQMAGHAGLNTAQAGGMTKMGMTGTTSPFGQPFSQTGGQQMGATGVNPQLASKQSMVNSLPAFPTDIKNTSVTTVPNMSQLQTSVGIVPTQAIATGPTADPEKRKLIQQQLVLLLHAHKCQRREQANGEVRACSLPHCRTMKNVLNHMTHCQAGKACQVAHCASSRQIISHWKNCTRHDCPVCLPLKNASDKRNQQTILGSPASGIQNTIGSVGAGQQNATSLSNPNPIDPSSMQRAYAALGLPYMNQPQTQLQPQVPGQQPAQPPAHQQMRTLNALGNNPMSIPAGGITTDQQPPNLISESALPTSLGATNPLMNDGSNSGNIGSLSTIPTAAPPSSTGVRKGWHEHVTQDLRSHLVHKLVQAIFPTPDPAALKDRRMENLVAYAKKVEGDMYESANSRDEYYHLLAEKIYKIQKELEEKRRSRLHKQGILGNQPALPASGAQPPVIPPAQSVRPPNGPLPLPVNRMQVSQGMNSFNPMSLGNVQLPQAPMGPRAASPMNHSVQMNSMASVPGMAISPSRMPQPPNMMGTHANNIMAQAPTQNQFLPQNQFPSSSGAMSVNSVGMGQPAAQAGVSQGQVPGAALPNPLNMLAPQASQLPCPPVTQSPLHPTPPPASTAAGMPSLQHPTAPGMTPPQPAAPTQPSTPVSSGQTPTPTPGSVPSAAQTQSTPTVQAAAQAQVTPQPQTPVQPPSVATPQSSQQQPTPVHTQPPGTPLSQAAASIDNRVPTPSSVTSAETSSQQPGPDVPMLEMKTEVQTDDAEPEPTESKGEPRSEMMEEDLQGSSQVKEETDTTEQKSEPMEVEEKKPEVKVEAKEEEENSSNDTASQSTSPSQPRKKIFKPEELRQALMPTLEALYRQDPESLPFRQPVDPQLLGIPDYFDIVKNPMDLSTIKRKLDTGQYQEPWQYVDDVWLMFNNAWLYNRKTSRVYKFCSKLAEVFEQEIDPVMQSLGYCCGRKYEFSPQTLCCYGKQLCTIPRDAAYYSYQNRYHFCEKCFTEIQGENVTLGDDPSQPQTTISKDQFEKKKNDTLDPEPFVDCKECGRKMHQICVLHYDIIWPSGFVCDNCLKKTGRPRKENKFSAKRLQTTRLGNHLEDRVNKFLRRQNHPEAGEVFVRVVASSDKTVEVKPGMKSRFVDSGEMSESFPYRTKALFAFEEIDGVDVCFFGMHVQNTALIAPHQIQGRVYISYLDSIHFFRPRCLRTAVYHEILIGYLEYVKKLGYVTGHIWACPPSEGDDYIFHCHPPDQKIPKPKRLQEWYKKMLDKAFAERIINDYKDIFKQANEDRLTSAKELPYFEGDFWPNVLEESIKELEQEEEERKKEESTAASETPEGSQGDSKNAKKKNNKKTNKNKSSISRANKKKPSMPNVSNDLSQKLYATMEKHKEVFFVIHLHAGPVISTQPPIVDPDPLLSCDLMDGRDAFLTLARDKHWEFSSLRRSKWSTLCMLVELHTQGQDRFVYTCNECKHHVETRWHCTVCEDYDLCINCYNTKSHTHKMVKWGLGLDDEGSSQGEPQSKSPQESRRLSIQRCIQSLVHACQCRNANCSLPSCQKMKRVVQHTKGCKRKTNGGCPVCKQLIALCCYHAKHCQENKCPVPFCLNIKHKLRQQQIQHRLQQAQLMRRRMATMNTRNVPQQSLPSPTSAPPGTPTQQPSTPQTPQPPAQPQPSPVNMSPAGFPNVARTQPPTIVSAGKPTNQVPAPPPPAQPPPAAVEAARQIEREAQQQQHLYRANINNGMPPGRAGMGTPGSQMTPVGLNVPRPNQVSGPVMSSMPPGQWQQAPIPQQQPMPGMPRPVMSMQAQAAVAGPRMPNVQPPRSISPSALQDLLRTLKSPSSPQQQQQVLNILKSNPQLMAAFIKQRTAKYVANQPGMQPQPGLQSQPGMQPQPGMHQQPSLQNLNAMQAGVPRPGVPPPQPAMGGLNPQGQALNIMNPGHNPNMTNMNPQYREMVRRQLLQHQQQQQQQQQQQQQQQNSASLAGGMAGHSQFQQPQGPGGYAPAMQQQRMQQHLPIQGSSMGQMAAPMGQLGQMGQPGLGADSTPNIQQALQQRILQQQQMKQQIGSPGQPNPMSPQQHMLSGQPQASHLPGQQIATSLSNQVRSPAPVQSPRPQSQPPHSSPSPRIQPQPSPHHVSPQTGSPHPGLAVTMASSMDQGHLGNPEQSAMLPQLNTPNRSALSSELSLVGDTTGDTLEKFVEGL
Experimental: (§3) YH250 was used in this study. Female C57/Black mice were administrated with either DMSO (solvent control) or YH250 (2 mg/kg) subcutaneously. 24 hrs later, bone marrow Sca-1posit cells were isolated with Anti-Sca-1 microbeads (Miltenyi Biotec, Cat#130-092-529) for co-immunoprecipitation (FIG. 4A). Cells were then lysed and incubated with either anti-CBP (A22) or anti-p300 (C20) antibodies. Then, the immunoprecipitation complex were electrophoresed and detected with antibodies to either β-catenin or γ-catenin. […] This confirms that YH250 directly disrupts the p300/catenin interaction thereby enhancing the CBP/catenin interaction in HSPCs.

[2] = target: T2, p300/γ-catenin interaction (Mus musculus, UniProt B2RWS6); assay: Co-IP of bone marrow Sca-1posit cells from treated mice (anti-p300); type: in vivo; settings: YH250 2 mg/kg subcutaneously, 24 hrs
T2 construct: bone marrow Sca-1posit cells were isolated with Anti-Sca-1 microbeads; from tissue; host or cells: bone marrow Sca-1 positive cells of female C57/Black mice dosed in vivo
Experimental: as §3

Human survivin promoter = assay: Survivin/luciferase reporter (Survivin-Hek-293); type: cell-based
Experimental: as §1
B. Survivin Expression Level: The Secondary Screen.
as §2

[3] = test system: H9 human embryonic stem cells; assay: Maintenance of human ES cell pluripotency, 5 days; type: cell-based; settings: 25 ng/ml Wnt3a; 500 nM YH249 or 200 nM YH250, 5 days, without FGF and TGF
Experimental: (§4) We also determined that IQ-1 indirectly, via binding to the PR72/130 subunit of PP2A, inhibited the p300/β-catenin interaction (Id). Therefore, we anticipated that YH249/250 should also maintain mESC pluripotency in a Wnt dependent manner. To test his, R1 mESCs were cultured under feeder free conditions in the presence or absence of YH249/250 for 5 days. […] Pluripotency markers, Oct4, Nanog, Sox2, SSEA-1 and ALP, were all expressed in the cells treated with Wnt3a and YH250 (FIG. 28b). Moreover, Wnt3a could be replaced with the selective GSK-3 inhibitor CHIR99021, which activates the Wnt signaling pathway (FIG. 28a, lower panel). […] In the event, similarly to ID-8, the combination of Wnt3a and YH249/250 provided morphologically undifferentiated colonies of H9 human embryonic stem cells (hESCs) without FGF and TGF (FIG. 28c). hPSC markers were detected by ALP staining and immunofluorescence (FIG. 28d). In addition to H9 cells, two other hESC lines and a human induced pluripotent stem (iPS) cell line could be also maintained undifferentiated morphology utilizing the same conditions (not shown).
Specifically, FIG. 28A-28D, show maintenance of ESC's pluripotency by YH249 and YH250. […] 28A, Typical colony morphologies of RI mouse ES cells cultured 5 days in [upper panel] […]

bone marrow cells = assay: Brief (4 h) incubation of bone marrow cells, 14 days culture, FACS; type: cell-based, mouse; settings: 0.5 μM 4 hrs, 14 days culture
Experimental: Bone marrow cells were treated with DMSO or YH250 (0.5 μM) for 4 hours, then the compound was removed and the cells cultured in QBSF-58 medium for 14 days with 10 ng/ml of SCF, TPO, Flt3 ligand, and IL-6. At the end of culture, cells were recovered and analyzed for LSK cells with FACS.
In a further study, female CD45.1 mice bone marrow cells were incubated with DMSO, or YH249 (0.5 μM) or YH250 (0.5 μM) for 4 hrs in QBSF-58 media, then 2×10^4 cells were plated in QBSF-58 medium containing SCF, TPO, Flt3 and IL-6 (10 ng/ml for each) for 14 days. Cells were then recovered from plate for FACS analysis. […] Correspondingly, there are higher LSK cells (52%, 60% and 70% respectively for DMSO, YH249 and YH250). From every 10,000 analyzed cells, LSKCD34negt cell numbers are 437, 663 and 2051 for DMSO, YH249 and YH250 treated cells, respectively.

mouse bone marrow cells = assay: Colony-forming cell (CFC) assay after 4 h in vitro treatment; type: cell-based
Experimental: Brief (less than 24 hours) treatment of HSC with YH250 or DMSO was conducted before the CFC or CFU-S12 assay. Mouse bone marrow cells were treated with DMSO (solvent control) or YH250 for 4 hours in serum free HSC expansion medium before the cells were recovered for a colony forming assay. 7-8 Days after cell plating in methylcellulose medium (Stemcell Technologies, Methocult GF M3434, Cat#3434), colonies were scored, and the cells from each plate were recovered and counted.
In fact, they also show similar biological functions with respect to HSPC.

R1 mESCs [4] = assay: Maintenance of mouse ES cell pluripotency, feeder free, 5 days; type: cell-based; settings: with 50 ng/ml Wnt3a or 3 μM CHIR99021; 500 nM YH249 or 200 nM YH250, 5 days
Experimental: as §4
Specifically, FIG. 28A-28D, show maintenance of ESC's pluripotency by YH249 and YH250. […] 28A, Typical colony morphologies of RI mouse ES cells cultured 5 days in [upper panel] 3 μM CHIR99021 and 1 μM PD0325901 (2i) medium, basal medium (2i medium without CHIR99021 and PD0325901), basal medium supplemented with 50 ng/ml Wnt3a alone, [middle panel] combination of 50 ng/ml Wnt3a and 2 μM IQ-1, 500 nM YH249 or 200 nM YH250, [lower panel] 3 μM of CHIR99021 alone, and combination of 3 μM CHIR99021 and 500 nM YH249 or 200 nM YH250. […] The blue signal (Wnt3a panels) represents DAPI nuclear staining. Bars indicate […]. […] The blue signal (Wnt3a panels) represents DAP1 nuclear staining. Scale bars indicate 100 am.

p300 = target: T3, p300 (Mus musculus, UniProt B2RWS6); assay: Bio-249 affinity pull-down from C2Cl2 lysates, p300 immunoblot; type: binding
T3 construct: endogenous in cells; host or cells: lysates of mouse C2C12 myoblasts
T3 sequence (B2RWS6 whole entry): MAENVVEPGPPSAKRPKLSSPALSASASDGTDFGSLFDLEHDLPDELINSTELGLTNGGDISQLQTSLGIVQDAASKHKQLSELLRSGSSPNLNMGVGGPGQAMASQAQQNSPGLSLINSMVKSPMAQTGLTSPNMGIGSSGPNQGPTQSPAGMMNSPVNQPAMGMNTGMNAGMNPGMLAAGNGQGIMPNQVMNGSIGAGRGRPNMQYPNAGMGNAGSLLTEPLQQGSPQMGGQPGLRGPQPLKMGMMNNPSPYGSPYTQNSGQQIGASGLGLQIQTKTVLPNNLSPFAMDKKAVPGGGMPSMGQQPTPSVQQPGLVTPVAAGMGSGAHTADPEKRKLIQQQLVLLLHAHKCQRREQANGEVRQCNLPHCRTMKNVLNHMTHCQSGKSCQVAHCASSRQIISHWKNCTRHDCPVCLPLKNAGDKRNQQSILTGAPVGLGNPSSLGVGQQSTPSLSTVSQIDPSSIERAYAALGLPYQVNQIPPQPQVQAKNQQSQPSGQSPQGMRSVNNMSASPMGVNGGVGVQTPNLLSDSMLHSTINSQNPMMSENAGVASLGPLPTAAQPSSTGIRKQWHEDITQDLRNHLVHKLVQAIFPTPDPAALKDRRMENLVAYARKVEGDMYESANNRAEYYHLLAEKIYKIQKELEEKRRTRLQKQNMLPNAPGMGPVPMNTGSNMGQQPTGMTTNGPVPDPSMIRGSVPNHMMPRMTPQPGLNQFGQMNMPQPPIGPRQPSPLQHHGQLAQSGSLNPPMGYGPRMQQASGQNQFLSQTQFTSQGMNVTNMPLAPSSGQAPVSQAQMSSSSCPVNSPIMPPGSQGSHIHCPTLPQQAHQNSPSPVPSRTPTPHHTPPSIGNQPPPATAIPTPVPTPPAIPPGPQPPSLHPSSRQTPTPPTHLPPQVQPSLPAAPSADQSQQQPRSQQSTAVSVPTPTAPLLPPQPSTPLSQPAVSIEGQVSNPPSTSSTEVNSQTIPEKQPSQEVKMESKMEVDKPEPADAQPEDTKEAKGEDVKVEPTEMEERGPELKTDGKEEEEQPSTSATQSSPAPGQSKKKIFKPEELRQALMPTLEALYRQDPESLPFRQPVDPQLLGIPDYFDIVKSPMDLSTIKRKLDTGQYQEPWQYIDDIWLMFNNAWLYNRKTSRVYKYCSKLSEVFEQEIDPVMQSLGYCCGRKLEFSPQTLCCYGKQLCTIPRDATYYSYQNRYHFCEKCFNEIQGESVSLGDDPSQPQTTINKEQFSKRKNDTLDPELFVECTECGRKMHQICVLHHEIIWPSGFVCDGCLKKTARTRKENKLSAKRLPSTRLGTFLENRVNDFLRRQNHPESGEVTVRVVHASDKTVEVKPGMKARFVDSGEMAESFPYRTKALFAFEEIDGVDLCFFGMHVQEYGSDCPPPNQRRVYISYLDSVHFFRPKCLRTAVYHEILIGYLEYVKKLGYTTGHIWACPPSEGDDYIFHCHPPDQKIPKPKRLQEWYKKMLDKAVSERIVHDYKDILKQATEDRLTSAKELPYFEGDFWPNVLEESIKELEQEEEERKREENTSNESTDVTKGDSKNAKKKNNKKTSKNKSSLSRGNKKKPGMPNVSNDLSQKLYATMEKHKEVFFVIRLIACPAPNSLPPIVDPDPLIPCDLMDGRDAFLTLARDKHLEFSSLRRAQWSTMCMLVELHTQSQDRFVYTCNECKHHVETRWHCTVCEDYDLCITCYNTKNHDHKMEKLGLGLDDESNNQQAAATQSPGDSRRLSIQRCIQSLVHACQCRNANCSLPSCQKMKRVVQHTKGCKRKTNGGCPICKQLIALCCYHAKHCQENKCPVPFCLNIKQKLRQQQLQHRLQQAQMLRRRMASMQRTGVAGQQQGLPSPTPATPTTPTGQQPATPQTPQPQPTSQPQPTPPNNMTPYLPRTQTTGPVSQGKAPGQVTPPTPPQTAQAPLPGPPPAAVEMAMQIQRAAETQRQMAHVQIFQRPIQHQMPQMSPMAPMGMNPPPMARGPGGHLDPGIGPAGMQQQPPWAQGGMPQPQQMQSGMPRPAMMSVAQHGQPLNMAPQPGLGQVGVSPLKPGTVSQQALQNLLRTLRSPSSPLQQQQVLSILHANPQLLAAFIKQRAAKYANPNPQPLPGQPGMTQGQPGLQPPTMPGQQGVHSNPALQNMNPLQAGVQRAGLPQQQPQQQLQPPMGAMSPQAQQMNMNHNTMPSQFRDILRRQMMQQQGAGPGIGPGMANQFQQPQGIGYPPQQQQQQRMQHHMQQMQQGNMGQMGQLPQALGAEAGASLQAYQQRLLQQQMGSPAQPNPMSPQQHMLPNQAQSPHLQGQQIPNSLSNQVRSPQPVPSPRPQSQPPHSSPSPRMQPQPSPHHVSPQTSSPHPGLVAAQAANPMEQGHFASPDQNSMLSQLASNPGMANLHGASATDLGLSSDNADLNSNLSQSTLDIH
Experimental: YH249 and YH250 were selected from the compounds described herein for further testing. Co-immunoprecipitation (CO-IP) was performed with mouse myoblast C2Cl2 cells. Cells were treated with DMSO (control), or YH249, or YH250 for 24 hours. Cell lyses were pulled down with anti-p300 or anti-CBP antibodies, run on gel and probed with anti-β-catenin antibody. […] A biotinylated version of YH249 (Bio-249) was prepared via the propargyl amide variant. Using a biotin with a linker and a terminal azide residue, we were able to couple the biotin to the YH249 core via a 3+2 cyclization reaction to provide Bio-249. Bio-249 was incubated with lysates from C2Cl2 myoblasts, either in the presence or absence of competitor YH249 for 4 h at 4° C. and then bound to streptavidin agarose beads. After extensive washing the bound proteins were eluted and run out on an […].

R1 mESCs [5] = settings: Wnt dependent manner; cited from earlier work
[6] = 4 hours incubation then CFC assay

luciferase activity (Wnt/β-catenin activity) (Wnt/β-catenin pathway; Hek293 TCF/LEF luciferase): luciferase activity was decreased
CBP/γ-catenin interaction [1]: inhibits CBP/γ-catenin interaction
p300/γ-catenin interaction [2]: promotes p300/γ-catenin interaction
Compound: O=C1[C@H](Cc2ccc(O)cc2)N2C(=O)CCN(C(=O)NCc3ccccc3)[C@H]2CN1Cc1cccc2ccccc12 [ICG-001, reference compound]
survivin expression level in survivin-reporter system (Human survivin promoter): significantly decreased in a dose dependent manner

IC50 (Wnt/β-catenin pathway; Homo sapiens, HEK293, STF1.1 Hek-293, 1 hour pre-incubation, 10 mM LiCl 24 hours): < 0.1 µM
binding to p300 (affinity precipitation, p300 immunoblot) (p300; C2Cl2 lysates, 4 h at 4° C., streptavidin agarose beads): directly binding to p300
competition of the band precipitated by Bio-249 (p300; free competitor): strongly competed out
Compound: COc1cccc(CNC(=O)N2C3CN(Cc4cccc(Cl)c4N(C)C)C(=O)[C@H](Cc4ccc(O)cc4)N3C(=O)CN2C)c1OC (some centres unmarked) [YH249]
hESC pluripotency [3]: maintain pluripotency
lineage negative cell (bone marrow cells; DMSO 9%): 17%
LSK cells (bone marrow cells; DMSO 52%): 60%
LSKCD34negt cell numbers (bone marrow cells; from every 10,000 analyzed cells, DMSO 437): 663
CELL#/plate (mouse bone marrow cells; [6]): 5.2 × 10^5
CFC#/plate (mouse bone marrow cells; [6]): 27
cell number in each plate vs DMSO (mouse bone marrow cells; 4 hours treatment, cells recovered from plate): higher cell number in each plate
mESC pluripotency (R1 mESCs [4]): maintain pluripotency
IC50 (Human survivin promoter; Homo sapiens, Survivin-Hek-293, 24 hours, read-out: survivin/luciferase reporter: did not inhibit up to): > 20 µM

Compound: CC(=O)c1ccc(NN=C(C(N)=O)C2=NC(C)(C)Cc3ccccc32)cc1 [IQ-1]
mESC pluripotency (previously reported) (R1 mESCs [5]): maintain long term mESC pluripotency
